Counter-ions that a name gives are not always drawn.
Columns and labels:
[1] = source PR (EU Plastics Regulation No. 10/2011) or SO (Swiss Ordinance); EU Cube model; cited from earlier work
[2] = Worst-case calculation, Application 1 yoghurt pot lid exposure scenario; details: 100% migration, 2.0 g/m^2 dry film
[3] = Worst-case calculation (100% migration), standard EU Cube exposure model; details: 100% migration; for Worst-case calculation as a percentage of SML (or restriction), EU Cube: 2.0 g/m^2 dry film; for Worst Case Calculation of migration in EU Cube model (as a percentage of SML): dry coat weight 2.0 g/m^2
[4] = Worst-case calculation, Application 2 cheese packaging wrap exposure scenario; details: 100% migration, 2.0 g/m^2 dry film

SMILES: CCCCOC(=O)CC(O)(CC(=O)OCCCC)C(=O)OCCCC [0000077-94-1, Tributyl citrate]
- SML or Restriction (mg substance/kg food) [1]: 0.05 mg substance/kg food
- Worst-case calculation as a percentage of SML (or restriction), Application 1 ([2]; product SBDEV976): 21.7 percentage of SML (or restriction)
- Worst-case calculation as a percentage of SML (or restriction), Application 1 ([2]; product SBDEV977): 20.9 percentage of SML (or restriction)
- Worst-case calculation as a percentage of SML (or restriction), Application 1 ([2]; product SBDEV979): 20.8 percentage of SML (or restriction)
- Worst-case calculation as a percentage of SML (or restriction), Application 1 ([2]; product SBDEV980): 21.0 percentage of SML (or restriction)
- Worst-case calculation as a percentage of SML (or restriction), Application 1 ([2]; product SBDEV1284): 20.73 percentage of SML (or restriction)
- Worst-case calculation as a percentage of SML (or restriction), Application 1 ([2]; product SBDEV1285): 20.73 percentage of SML (or restriction)
- Worst-case calculation as a percentage of SML (or restriction), Application 1 ([2]; product SBDEV1286): 20.73 percentage of SML (or restriction)
- Worst-case calculation as a percentage of SML (or restriction), Application 1 ([2]; product SBDEV1287): 20.73 percentage of SML (or restriction)
- Worst-case calculation as a percentage of SML (or restriction), EU Cube ([3]; product SBDEV976): 55.2 percentage of SML (or restriction)
- Worst-case calculation as a percentage of SML (or restriction), EU Cube ([3]; product SBDEV977): 53.2 percentage of SML (or restriction)
- Worst-case calculation as a percentage of SML (or restriction), EU Cube ([3]; product SBDEV979): 52.8 percentage of SML (or restriction)
- Worst-case calculation as a percentage of SML (or restriction), EU Cube ([3]; product SBDEV980): 53.4 percentage of SML (or restriction)
- Worst-case calculation as a percentage of SML (or restriction), EU Cube ([3]; product SBDEV1284): 52.8 percentage of SML (or restriction)
- Worst-case calculation as a percentage of SML (or restriction), EU Cube ([3]; product SBDEV1285): 52.8 percentage of SML (or restriction)
- Worst-case calculation as a percentage of SML (or restriction), EU Cube ([3]; product SBDEV1286): 52.8 percentage of SML (or restriction)
- Worst-case calculation as a percentage of SML (or restriction), EU Cube ([3]; product SBDEV1287): 52.8 percentage of SML (or restriction)
- Worst Case Calculation of migration in EU Cube model (as a percentage of SML) ([3]; substance in ink SBDEV976 (Ex. 4C Cyan)): 55.2 percentage of SML
- Worst Case Calculation of migration in EU Cube model (as a percentage of SML) ([3]; substance in ink SBDEV977 (Ex. 4A Yellow)): 53.2 percentage of SML
- Worst Case Calculation of migration in EU Cube model (as a percentage of SML) ([3]; substance in ink SBDEV979 (Ex. 4D Black)): 52.8 percentage of SML
- Worst Case Calculation of migration in EU Cube model (as a percentage of SML) ([3]; substance in ink SBDEV980 (Ex. 4B Red)): 53.4 percentage of SML
- Worst-case calculation as a percentage of SML (or restriction), Application 2 ([4]; product SBDEV976): 79.6 percentage of SML (or restriction)
- Worst-case calculation as a percentage of SML (or restriction), Application 2 ([4]; product SBDEV977): 76.7 percentage of SML (or restriction)
- Worst-case calculation as a percentage of SML (or restriction), Application 2 ([4]; product SBDEV979): 76.0 percentage of SML (or restriction)
- Worst-case calculation as a percentage of SML (or restriction), Application 2 ([4]; product SBDEV980): 76.9 percentage of SML (or restriction)
- Worst-case calculation as a percentage of SML (or restriction), Application 2 ([4]; product SBDEV1284): 76.01 percentage of SML (or restriction)
- Worst-case calculation as a percentage of SML (or restriction), Application 2 ([4]; product SBDEV1285): 76.01 percentage of SML (or restriction)
- Worst-case calculation as a percentage of SML (or restriction), Application 2 ([4]; product SBDEV1286): 76.01 percentage of SML (or restriction)
- Worst-case calculation as a percentage of SML (or restriction), Application 2 ([4]; product SBDEV1287): 76.01 percentage of SML (or restriction)

Reference: patent US11927585B2, “Solvent-based inks and coatings for food contact applications” (SUN CHEMICAL CORPORATION, priority 2020, dated 2024)
